Experimental data: paper PMC6268439, “Tebrophen — An Old Polyphenol Drug with Anticancer Potential ^†” (Molecules, 2012)

What was measured:
Type in all cases: biochemical
Lck = Lck (Homo sapiens, UniProt P06239); assay: ELISA kinase assay with purified kinase expressed in Sf9, poly Glu:Tyr ([…]) substrate
[1] = target: T1, Dipeptidyl peptidase IV (DPPIV/CD26) (Homo sapiens, UniProt P27487); assay: enzyme assay with H-Gly-Pro-pNA substrate; […] inhibition at […]
T1 construct: gene DPP4

ZAP-70 = target: T2, ZAP-70 (Homo sapiens, UniProt P43403); assay: ELISA kinase assay with purified kinase expressed in Sf9, poly Glu:Tyr ([…]) substrate
T2 construct: gene ZAP70
T2 sequence (P43403 1-619): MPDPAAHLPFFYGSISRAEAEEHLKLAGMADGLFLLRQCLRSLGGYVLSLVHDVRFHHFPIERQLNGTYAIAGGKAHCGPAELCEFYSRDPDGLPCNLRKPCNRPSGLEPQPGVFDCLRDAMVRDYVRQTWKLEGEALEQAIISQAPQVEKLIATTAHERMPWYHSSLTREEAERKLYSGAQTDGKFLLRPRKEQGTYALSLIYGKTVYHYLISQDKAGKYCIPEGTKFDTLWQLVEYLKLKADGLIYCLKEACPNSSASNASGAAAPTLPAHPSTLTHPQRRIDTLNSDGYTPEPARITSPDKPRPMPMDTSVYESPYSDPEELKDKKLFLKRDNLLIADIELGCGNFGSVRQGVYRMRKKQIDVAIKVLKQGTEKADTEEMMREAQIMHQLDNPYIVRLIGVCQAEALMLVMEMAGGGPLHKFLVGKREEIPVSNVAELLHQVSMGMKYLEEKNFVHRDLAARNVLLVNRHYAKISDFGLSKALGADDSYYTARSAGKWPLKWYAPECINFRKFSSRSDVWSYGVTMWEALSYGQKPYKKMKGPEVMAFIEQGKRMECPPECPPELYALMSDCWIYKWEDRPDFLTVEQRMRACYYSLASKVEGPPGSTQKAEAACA

T1 sequence (P27487 39-766): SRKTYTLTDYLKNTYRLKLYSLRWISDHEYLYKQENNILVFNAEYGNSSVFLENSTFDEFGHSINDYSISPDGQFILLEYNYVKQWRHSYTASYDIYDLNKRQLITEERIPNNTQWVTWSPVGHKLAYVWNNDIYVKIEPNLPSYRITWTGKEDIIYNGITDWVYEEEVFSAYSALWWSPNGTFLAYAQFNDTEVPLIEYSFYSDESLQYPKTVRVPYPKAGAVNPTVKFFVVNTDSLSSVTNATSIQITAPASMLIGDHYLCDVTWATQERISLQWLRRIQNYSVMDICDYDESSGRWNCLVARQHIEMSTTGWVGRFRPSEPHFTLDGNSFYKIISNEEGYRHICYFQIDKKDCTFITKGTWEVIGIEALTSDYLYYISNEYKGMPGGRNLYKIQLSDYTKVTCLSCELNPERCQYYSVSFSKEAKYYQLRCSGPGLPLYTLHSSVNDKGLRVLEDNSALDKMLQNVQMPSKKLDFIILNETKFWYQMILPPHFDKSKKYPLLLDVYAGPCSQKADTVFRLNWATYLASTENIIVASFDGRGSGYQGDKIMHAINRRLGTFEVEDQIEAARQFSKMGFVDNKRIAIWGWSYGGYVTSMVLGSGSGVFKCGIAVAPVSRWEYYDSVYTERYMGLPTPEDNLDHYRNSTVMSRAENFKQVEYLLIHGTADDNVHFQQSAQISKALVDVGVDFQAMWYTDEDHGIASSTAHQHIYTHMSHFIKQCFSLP
Chain of Lck (P06239 2-509): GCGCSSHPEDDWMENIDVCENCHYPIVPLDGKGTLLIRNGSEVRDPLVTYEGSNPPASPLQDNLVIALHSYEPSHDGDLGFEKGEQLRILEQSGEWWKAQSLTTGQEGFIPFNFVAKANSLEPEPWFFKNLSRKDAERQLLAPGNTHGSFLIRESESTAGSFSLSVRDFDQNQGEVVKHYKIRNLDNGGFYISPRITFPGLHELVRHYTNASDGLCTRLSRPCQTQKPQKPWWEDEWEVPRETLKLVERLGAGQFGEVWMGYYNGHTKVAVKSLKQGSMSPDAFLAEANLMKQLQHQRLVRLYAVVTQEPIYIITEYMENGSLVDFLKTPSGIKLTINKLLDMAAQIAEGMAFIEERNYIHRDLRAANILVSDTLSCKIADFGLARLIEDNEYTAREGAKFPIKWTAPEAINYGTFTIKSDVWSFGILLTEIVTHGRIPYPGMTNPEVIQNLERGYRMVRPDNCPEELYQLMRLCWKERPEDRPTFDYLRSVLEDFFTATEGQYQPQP

`Oc1c(Br)cc(-c2cc(Br)c(O)c(Br)c2O)c(O)c1Br` [tebrophen, 3,3',5,5'-tetrabromobiphenyl-2,2',4,4'-tetrol] showed an IC50 (Lck) of 16 µM, an inhibition at 80 µM [1] of 41% and an IC50 (ZAP-70) of 0.34 µM.
